Experimental findings from ChEMBL document CHEMBL1781901, “Toluidinesulfonamide hypoxia-induced factor 1 inhibitors: alleviating drug-drug interactions through use of PubChem data and comparative molecular field analysis guided synthesis” (J Med Chem, 2011) are described below.

The term EC50 denotes the concentration needed to bring the measured effect to its halfway point. The term pIC50 denotes −log10 of the IC50, conventionally taken in molar units.

The target in one assay is Cytochrome P450 2C9 (Homo sapiens, UniProt P11712). Kind of assay: Inhibition of CYP2C9 after 30 mins by luminescence assay. Type of assay: ADME.
Chain of Cytochrome P450 2C9 (P11712 whole entry): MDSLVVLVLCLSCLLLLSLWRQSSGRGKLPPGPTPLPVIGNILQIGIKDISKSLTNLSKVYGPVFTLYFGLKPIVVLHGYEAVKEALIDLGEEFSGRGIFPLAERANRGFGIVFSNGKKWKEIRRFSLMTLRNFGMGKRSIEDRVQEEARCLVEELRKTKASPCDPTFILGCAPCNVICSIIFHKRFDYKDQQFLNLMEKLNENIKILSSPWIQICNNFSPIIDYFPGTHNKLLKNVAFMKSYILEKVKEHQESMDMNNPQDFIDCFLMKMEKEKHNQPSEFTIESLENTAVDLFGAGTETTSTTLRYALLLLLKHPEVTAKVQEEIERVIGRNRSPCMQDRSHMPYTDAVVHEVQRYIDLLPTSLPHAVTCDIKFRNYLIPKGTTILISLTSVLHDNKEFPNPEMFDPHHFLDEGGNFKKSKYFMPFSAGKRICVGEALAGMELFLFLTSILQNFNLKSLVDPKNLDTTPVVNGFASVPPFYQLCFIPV
The nature of assay [1]: Inhibition of HIF-1 in human deferoxamine treated HCT-116 cells expressing HRE-bla gene pretreated for 30 mins before deferoxamine challenge measured after 24 hrs by fluorometric analysis. In kind it is cell-based.

Consider `COC(=O)c1ccc(C)c(NS(=O)(=O)c2ccc(NC(C)=O)cc2)c1`, for which a half-maximal response on Cytochrome P450 2C9 (EC50) required 0.251 µM. For the same compound, the pIC50 in assay [1] is on record as 4.7.

For `COC(=O)c1ccc(C)c(NS(=O)(=O)c2ccc(OC)cc2)c1`, on Cytochrome P450 2C9, the EC50 was 3.98 µM. Moreover, the pIC50 in assay [1] was 7.2.

In the case of `COC(=O)c1ccc(C)c(NS(=O)(=O)c2ccc(OC)c(OC)c2)c1`, the EC50 at Cytochrome P450 2C9 is 2.51 µM. Also, the pIC50 in assay [1] was less than 5.

Compound `COC(=O)c1ccc(OC)c(NS(=O)(=O)c2ccc(OC)cc2)c1` had an EC50 at Cytochrome P450 2C9 of 39.8 µM. Further, the pIC50 in assay [1] was 5.5.

`COC(=O)c1ccc(C)c(N(C)S(=O)(=O)c2ccc(C)cc2)c1` had an EC50 at Cytochrome P450 2C9 of 15.8 µM. For the same compound, the pIC50 in assay [1] is listed as 5.8.

In the case of `COC(=O)c1ccc(C)c(N(C)S(=O)(=O)c2ccc(OC)cc2)c1`, a half-maximal response at Cytochrome P450 2C9 (EC50) required 25.1 µM. The pIC50 in assay [1] is reported as 6.2.

For the compound `COC(=O)c1ccc2c(c1)N(S(=O)(=O)c1ccc(C)cc1)CCO2`, the EC50 on Cytochrome P450 2C9 is 3.98 µM. In assay [1], the pIC50 came out at 7.

The compound `COC(=O)c1ccc(C)c(NS(=O)(=O)c2ccc(C)cc2)c1` gave an EC50 at Cytochrome P450 2C9 of 1.58 µM. Besides, the pIC50 in assay [1] turned out to be 7.4.
